We go through one compound from patent US20110296540A1, “ASSAY FOR SCREENING ANTIDEPRESSANTS” (priority 2008, published 2011).

Like-named read-outs stand apart in the source and are kept apart here.

For one test, the system named is Giα2. The conditions noted are these: hypothalamus. As to the method:
(§1) Tissue preparation: Animals were sacrificed by cervical dislocation. Selected brain regions were dissected and placed in tubes containing RNAlater (Ambion), incubated at 4 degrees C. overnight and stored at −80 degrees C. until processing.
(§2) Brain regions (10-20 mg) were homogenized for 20 sec at medium speed in 1.25 ml lysis/denaturation buffer (Ambion) using an Autogizer™ (Tomtec). Total RNA was isolated from 100-300 ul aliquots of the homogenate using the RNAqueous™ 96 automated kit (Ambion) according to the manufacturer's protocol. A second DNase I digestion was incorporated after elution of the RNA from the Ambion filter plate to remove residual genomic DNA. Digestion was performed for 1 hr at room temperature using DNase I™ (Invitrogen) and the buffer supplied with the enzyme. After inactivation of the DNase with EDTA and heat, the RNA was desalted with a Multiscreen™ filter plate (Millipore) and stored at −80° C. Conversion of total RNA into first strand cDNA was accomplished with Superscript II™ enzyme (Invitrogen) followed by desalting over a Multiscreen plate. Approximately 1 ug of total RNA was used for each cDNA reaction. The yield of cDNA was determined using Quant-iT Oligreen™ reagent (Invitrogen). Prior to the Oligreen assay, total RNA carried over from the cDNA reaction was hydrolyzed with NaOH and heat, followed by neutralization with Tris buffer. This treatment eliminates any contribution of the RNA to the Oligreen signal. The unknown cDNA samples were compared to a standard curve derived using a 18mer oligonucleotide. Replica cDNA plates containing 3 ng of cDNA per well were prepared using an Evolution P3™ workstation (PerkinElmer). Each animal in a given experiment was represented by one well on each plate and each plate always contained the control and treatment groups.
(§3) Quantitative PCR (qPCR) was carried out in 25 ul reactions using Full Velocity™ enzyme (Stratagene). Plates were run on either a Stratagene MX3000P™ or an Applied Biosystems 7900 HT instrument. The cycling parameters were set based on recommendations from the enzyme manufacturer. One gene expression profile was analyzed per PCR plate and duplicate plates were run for each gene. Two housekeeping genes, cyclophilin and GAPDH, were included in the gene list and were used to normalize the expression results obtained from the other genes of interest (see data analysis section). The sequences of the primers and probes for each gene are listed in supplemental table 1. Duplicate cycle thresholds (Ct values) were obtained for each gene/region and averaged. […] After converting delta Ct values to percentage, the mean and SEM of each animal group (controls and experimental) was calculated.

In the next test the test system is β-arrestin 2. On the procedure:
as §1, §2, §3

A further test deals with β-arrestin 1. The conditions noted are these: hypothalamus. On the procedure: as §1, §2, §3
The subject of test [1] is proliferating neural progenitors. Description: BrdU labelling of cell proliferation in the dentate gyrus. It counts as in vivo, mice. As to the method: Immunohistochemistry and confocal imaging. Mice were anesthetized with ketamine/xylazine (100 and 7 mg/kg, respectively) and transcardially perfused (cold saline, followed by 4% cold paraformaldehyde in PBS). […] Immunohistochemistry was performed in the following steps: 2 h incubation in 1:1 formamide/2×SSC at 65° C., 5 min rinse in 2×SSC, 30 min incubation in 2N HCl at 37° C., and 10 min rinse in 0.1M boric acid, pH 8.5, 2 h incubation in 0.1M PBS with 0.3% Triton X-100, and 5% normal donkey serum. Sections were then incubated overnight at 4° C. in primary antibodies for doublecortin (goat; 1:500; Santa Cruz Biotechnology, Santa Cruz, Calif.), bromodeoxyuridine (BrdU; rat; 1:100; Serotec, Oxford, UK), and neuronal-specific nuclear protein (NeuN) (mouse; 1:500; Chemicon, Temecula, Calif.). Biotinylated or fluorescent secondary antibodies were used. All secondary antibodies were purchased from Jackson ImmunoResearch (West Grove, Pa.). DCX staining for Sholl analysis was done as follows: sections were rinsed in PBS, treated with 1% H2O2 in 1:1 PBS and methanol for 15 min to quench endogenous peroxidase activity (and to enhance dendritic staining), incubated in 10% normal donkey serum and 0.3% Triton X-100 for 30 min, and then incubated overnight at 4° C. in primary antibody for doublecortin. […] Stereological procedure was used to quantify labeled cells (Malberg et al., 2000 ? ). […]
For orientation: Incorporation of labelled thymidine or its analogues reports DNA synthesis.

The next test addresses T1, 5-HT1A autoreceptors (Mus musculus, UniProt Q64264).
T1 sequence (Q64264 1-421): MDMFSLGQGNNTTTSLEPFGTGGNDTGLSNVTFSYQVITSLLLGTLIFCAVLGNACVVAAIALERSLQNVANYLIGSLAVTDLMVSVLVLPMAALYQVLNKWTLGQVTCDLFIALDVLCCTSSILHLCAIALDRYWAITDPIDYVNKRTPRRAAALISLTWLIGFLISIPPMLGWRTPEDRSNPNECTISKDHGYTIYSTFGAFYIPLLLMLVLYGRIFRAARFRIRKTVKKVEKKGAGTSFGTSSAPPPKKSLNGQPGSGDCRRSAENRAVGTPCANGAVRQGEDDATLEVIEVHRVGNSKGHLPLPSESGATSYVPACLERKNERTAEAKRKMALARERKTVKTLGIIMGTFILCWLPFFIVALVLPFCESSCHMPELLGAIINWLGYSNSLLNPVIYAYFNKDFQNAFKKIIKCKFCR

Test [2] deals with MPP/DG synaptic connection. Description: Field electrophysiological recordings on hippocampal slices (MPP/DG), sham or x-irradiated animals. Type of test: in vivo, mice. As to the method: Electrophysiology. Brains were collected from animals after deep anesthesia with halothane and decapitation, and transverse hippocampal slices (400 μm) were prepared using a vibratome. […] Slices were allowed to equilibrate for 2 h before positioning the electrodes and beginning stimulation.
To record from the DG, the medial perforant path (MPP) was stimulated using a World Precision Instruments (Sarasota, Fla.) stimulation isolation unit and a bipolar tungsten electrode. Evoked potentials were recorded in the molecular layer above the upper blade of the DG using a glass capillary microelectrode filled with artificial CSF (tip resistance of 1-3 MΩ). […] Input-output curves were obtained after 10 min of stable recordings. […] After 15 min of stable baseline response to test stimulation (once every 20 s), the ability to elicit LTP was assessed. […] Responses were recorded every 20 for 60 min after LTP induction.

Experimental for 5-HT1A autoreceptors: (A) 8-OH DPAT-induced hypothermia in 1A-High and 1A-Low mice. Following establishment of baseline body temperature, animals received IP injections of 0.1 mg/kg 8-OHDAPT, 0.5 mg/kg 8-OH DPAT, or saline (N=5/dose/group). Values are expressed as core temperature change from the last recorded baseline temperature.
Text for C57BL/6Ntac mice: The novelty suppressed feeding paradigm (NSF) is a conflict test that elicits competing motivations: the drive to eat and the fear of venturing into the center of brightly lit arena. […] Briefly, the testing apparatus consisted of a plastic box (50×50×20 cm), the floor of which was covered with approximately 2 cm of wooden bedding. Twenty-four hours prior to behavioral testing, all food was removed from the home cage. At the time of testing, a single pellet of food (regular chow) was placed on a white paper platform positioned in the center of the box. An animal was placed in a corner of the box, and a stopwatch was immediately started. The latency to eat (defined as the mouse sitting on its haunches and biting the pellet with the use of forepaws) was timed. Immediately afterwards, the animal was transferred to its home cage, and the amount of food consumed by the mouse in the subsequent 5 min was measured, serving as a control for change in appetite as a possible confounding factor. Each mouse was weighed before food deprivation and before testing to assess the percentage of body weight loss (data not shown).
Mice were anesthetized with ketamine and xylazine (100 mg/ml ketamine; 20 mg/ml xylazine), placed in a stereotaxic frame and exposed to cranial irradiation using a Siemens Stabilopan X-ray system operated at 300 kVp and 20 mA. […] Dosimetry was done using a Capintec Model PR06G electrometer ionization chamber and Kodak Readypack Radiographic XV films. The corrected dose rate was approximately 1.8 Gy per min at a source to skin distance of 30 cm. The procedure lasted 2 min and 47 sec, delivering a total of 5 Gy. Three 5 Gy doses were delivered on days 1, 4 and 8.

Take `CNCCC(Oc1ccc(C(F)(F)F)cc1)c1ccccc1` (stereo not drawn) [fluoxetine]: the Giα2 expression result with Giα2 is listed as “totally reversed”. Besides, the “β-arrestin 2 levels” value in the test with β-arrestin 2 (hippocampus, fluoxetine) is on record as “opposite effect”. The “β-arrestin 2 expression” value in the test with β-arrestin 2 (hypothalamus, fluoxetine in corticosterone-treated mice) is listed as “reversed”. Also, the “β-arrestin 1 expression” value in the test on β-arrestin 1 is recorded as “totally reversed”. Besides, the “number of BrdU cells in the granule cell layer (GCL)” value in test [1] (chronic (28 d) fluoxetine 18 mg/kg/d vs vehicle) was “increased”. Moreover, the “number of BrdU+ cells” value in test [1] (sham animals of the irradiation experiment, 28 d of fluoxetine) is “increase”. In addition, the “effects of fluoxetine to reverse the anxiety/depressive-like state in the NSF paradigm” value in the test with C57BL/6Ntac mice (after hippocampal irradiation, chronic corticosterone) is on record as “completely abolished”. In the test on C57BL/6Ntac mice (chronic fluoxetine 18 or imipramine 40 mg/kg/day in corticosterone-treated mice), the “corticosterone-induced change in the latency to feed (NSF)” value was “reversed”. Also, the “latency to feed (NSF)” value in the test with C57BL/6Ntac mice (irradiated corticosterone/fluoxetine group) is recorded as 546.2 s; with C57BL/6Ntac mice (sham corticosterone/fluoxetine group) it was 371.3 s. Moreover, the results for the “hypothermic response to 8-OH DPAT after chronic fluoxetine” value on 5-HT1A autoreceptors (1A-High mice treated with fluoxetine for 30 days) and at 5-HT1A autoreceptors (1A-Low mice treated with fluoxetine for 30 days) were “no hypothermic response” and “blunted hypothermic response”, respectively. Also, the “input-output functions in the MPP/DG” value in test [2] (chronic fluoxetine) and in test [2] (subchronic fluoxetine) was “significantly increased” throughout. For the same compound, the “paired-pulse depression (50 ms interstimulus interval)” value in test [2] (chronic fluoxetine, one-third of maximal response and 60 μA) was “suppressed”. For the same compound, the ACSF-LTP result in test [2] (chronic fluoxetine, sham animals) is recorded as “enhanced”; in test [2] (subchronic fluoxetine, both sham and x-irradiated animals), “suppression”. Further, the LTP result in test [2] (chronic fluoxetine, x-irradiated animals) is given as “completely blocked”.
